Results: the NIST ThermoML archive (doi:10.1016/j.jct.2012.09.009)

Conditions: 101.33 kPa, Liquid; for speed of sound: Sing-around technique in a fixed-path interferometer; for mass density: vibrating tube

CC(C)CC(C)(C)C [2,2,4-trimethylpentane]
Conditions	mass density [kg/m3]	speed of sound [m/s]
278.15 K	704.1	1168.4
283.15 K	700.05	1146.8
288.15 K	695.98	1125.4
293.15 K	691.89	1104.3
298.15 K	687.77	1083.1
303.15 K	683.64	1062.4
308.15 K	679.48	1041.6
313.15 K	675.28	1020.9
318.15 K	671.07	1000.5
323.15 K	666.81	980
328.15 K	662.52	959.7
333.15 K	658.19	939.7
338.15 K	653.81	919.7
343.15 K	649.4	900

Cc1ccccc1 [toluene]
Conditions	speed of sound [m/s]
278.15 K	1394.1
283.15 K	1371.5
288.15 K	1349.1
293.15 K	1326.9
298.15 K	1305.1
303.15 K	1283.6
308.15 K	1262.2
313.15 K	1240.9
318.15 K	1219.9
323.15 K	1198.9
328.15 K	1178.2
333.15 K	1157.7
338.15 K	1137.2
343.15 K	1117
